{
  "source": "ChEMBL document CHEMBL6182925",
  "about": "(J Med Chem, 2025)",
  "key": {"[1]": {"experiment": "Kinetic solubility of compound at pH 2", "assay_type": "physicochemical", "conditions": "buffer, read-out: Kinetic_solubility"}, "[2]": {"experiment": "Kinetic solubility of compound at pH 4.5", "assay_type": "physicochemical", "conditions": "buffer, read-out: Kinetic_solubility"}, "[3]": {"biological_target": "T1, Alpha-2A adrenergic receptor (Homo sapiens) (UniProt P08913)", "T1 sequence (whole entry)": "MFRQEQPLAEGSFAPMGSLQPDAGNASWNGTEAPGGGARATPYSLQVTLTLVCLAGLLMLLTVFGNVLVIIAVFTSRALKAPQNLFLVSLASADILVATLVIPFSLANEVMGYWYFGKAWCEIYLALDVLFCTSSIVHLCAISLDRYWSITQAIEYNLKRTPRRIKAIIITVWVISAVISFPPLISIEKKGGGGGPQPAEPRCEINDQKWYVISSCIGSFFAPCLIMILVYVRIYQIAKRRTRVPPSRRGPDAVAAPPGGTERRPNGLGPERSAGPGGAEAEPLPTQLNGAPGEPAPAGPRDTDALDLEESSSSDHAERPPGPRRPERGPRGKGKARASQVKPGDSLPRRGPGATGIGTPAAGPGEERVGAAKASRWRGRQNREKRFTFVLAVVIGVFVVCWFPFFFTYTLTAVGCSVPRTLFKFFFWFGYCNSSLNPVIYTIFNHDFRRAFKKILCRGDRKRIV", "experiment": "Inhibition of alpha 2A adrenergic receptor (unknown origin) at 10 uM by CEREP analysis relative to control"}, "hERG": {"biological_target": "hERG (Homo sapiens, UniProt Q12809)", "sequence (Q12809 whole entry)": "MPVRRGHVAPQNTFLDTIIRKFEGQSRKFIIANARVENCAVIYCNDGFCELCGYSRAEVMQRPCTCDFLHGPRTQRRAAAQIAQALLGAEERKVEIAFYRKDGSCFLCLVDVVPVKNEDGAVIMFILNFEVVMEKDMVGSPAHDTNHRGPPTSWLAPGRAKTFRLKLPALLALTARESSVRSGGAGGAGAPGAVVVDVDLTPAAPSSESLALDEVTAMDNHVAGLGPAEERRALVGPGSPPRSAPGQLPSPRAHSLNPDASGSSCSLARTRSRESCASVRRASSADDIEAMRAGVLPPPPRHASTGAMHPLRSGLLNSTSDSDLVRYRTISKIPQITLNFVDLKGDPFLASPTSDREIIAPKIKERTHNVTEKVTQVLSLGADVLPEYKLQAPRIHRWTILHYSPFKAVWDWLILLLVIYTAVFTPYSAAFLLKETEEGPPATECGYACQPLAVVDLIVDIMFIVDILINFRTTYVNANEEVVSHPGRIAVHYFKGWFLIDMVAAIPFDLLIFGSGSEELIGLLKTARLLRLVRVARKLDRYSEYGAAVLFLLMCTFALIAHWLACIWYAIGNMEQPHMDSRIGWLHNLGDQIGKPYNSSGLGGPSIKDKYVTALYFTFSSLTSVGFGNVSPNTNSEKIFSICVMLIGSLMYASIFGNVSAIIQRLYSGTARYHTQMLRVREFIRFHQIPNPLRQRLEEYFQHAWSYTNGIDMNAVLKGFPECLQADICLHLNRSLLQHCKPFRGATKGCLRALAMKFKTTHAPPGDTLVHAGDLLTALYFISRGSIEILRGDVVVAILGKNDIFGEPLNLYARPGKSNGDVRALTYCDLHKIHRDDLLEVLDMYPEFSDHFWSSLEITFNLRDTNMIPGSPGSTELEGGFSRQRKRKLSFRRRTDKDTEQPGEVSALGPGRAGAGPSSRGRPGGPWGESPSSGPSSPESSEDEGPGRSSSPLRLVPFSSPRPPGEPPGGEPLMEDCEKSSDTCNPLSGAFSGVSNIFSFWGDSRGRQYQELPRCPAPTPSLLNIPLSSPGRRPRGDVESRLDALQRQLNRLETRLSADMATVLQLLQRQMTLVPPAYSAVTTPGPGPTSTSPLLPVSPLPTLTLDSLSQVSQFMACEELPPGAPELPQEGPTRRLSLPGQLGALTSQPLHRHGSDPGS", "experiment": "Inhibition of hERG at 10 uM by CEREP analysis relative to control", "assay_type": "toxicity"}, "[4]": {"biological_target": "5-hydroxytryptamine receptor 1B (Homo sapiens) (UniProt P28222)", "sequence (P28222 whole entry)": "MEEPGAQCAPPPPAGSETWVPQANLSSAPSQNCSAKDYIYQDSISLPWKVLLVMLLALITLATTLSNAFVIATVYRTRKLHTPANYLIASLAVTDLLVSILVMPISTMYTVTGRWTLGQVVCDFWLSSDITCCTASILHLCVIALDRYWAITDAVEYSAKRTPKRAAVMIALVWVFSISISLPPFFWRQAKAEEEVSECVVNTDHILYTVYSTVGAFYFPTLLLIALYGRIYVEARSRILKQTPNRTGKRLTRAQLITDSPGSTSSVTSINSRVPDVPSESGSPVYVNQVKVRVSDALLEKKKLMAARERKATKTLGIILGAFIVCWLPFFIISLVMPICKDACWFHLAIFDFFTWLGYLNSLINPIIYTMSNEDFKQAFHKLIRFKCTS", "experiment": "Inhibition of 5-HT1B receptor (unknown origin) at 10 uM by CEREP analysis relative to control"}, "[5]": {"biological_target": "5-hydroxytryptamine receptor 2B (Homo sapiens) (UniProt P41595)", "sequence (P41595 whole entry)": "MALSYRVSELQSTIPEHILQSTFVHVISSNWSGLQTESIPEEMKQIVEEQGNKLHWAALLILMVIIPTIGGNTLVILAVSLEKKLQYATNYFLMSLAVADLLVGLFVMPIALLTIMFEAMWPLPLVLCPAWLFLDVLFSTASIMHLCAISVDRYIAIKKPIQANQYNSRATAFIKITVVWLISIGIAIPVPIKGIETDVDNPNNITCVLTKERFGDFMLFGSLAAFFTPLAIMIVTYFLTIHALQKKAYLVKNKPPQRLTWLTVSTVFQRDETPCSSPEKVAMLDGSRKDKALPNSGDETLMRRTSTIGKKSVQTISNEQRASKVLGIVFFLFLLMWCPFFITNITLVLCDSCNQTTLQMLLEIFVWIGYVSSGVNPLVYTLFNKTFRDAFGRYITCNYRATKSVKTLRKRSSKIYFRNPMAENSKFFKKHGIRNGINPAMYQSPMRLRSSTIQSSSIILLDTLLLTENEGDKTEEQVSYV", "experiment": "Inhibition of 5-HT2B receptor (unknown origin) at 10 uM by CEREP analysis relative to control"}, "Homo sapiens": {"organism": "Homo sapiens", "experiment": "Inhibition of sodium channel site 2 (unknown origin) at 10 uM by CEREP analysis relative to control"}, "L-type calcium channel": {"biological_target": "L-type calcium channel (Homo sapiens, UniProt O60840+Q01668+Q13698+Q13936)", "experiment": "Inhibition of Calcium channel L-type (unknown origin) at 10 uM by CEREP analysis relative to control", "assay_type": "protein assay"}, "[6]": {"biological_target": "Sodium-dependent serotonin transporter (Homo sapiens) (UniProt P31645)", "sequence (P31645 whole entry, looked up)": "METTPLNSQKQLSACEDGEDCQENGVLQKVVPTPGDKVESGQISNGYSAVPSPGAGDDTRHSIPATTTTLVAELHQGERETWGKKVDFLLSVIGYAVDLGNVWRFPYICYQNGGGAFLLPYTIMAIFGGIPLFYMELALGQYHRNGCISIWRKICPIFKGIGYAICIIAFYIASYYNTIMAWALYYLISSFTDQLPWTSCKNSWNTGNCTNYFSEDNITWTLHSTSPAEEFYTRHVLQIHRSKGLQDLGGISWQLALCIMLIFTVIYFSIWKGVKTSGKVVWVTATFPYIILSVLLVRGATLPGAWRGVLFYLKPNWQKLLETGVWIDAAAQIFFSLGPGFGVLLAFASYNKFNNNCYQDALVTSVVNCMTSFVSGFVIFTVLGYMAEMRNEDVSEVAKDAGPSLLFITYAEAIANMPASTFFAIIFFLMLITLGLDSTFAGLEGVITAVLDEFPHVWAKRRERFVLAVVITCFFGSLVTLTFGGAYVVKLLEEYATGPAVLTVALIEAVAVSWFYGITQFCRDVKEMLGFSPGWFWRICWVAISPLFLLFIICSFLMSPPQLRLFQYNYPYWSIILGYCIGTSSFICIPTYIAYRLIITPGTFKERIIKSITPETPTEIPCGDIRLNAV", "experiment": "Inhibition of SERT (unknown origin) at 10 uM by CEREP analysis relative to control"}, "[7]": {"biological_target": "cGMP-inhibited 3',5'-cyclic phosphodiesterase 3A (Homo sapiens) (UniProt Q14432)", "sequence (Q14432 whole entry)": "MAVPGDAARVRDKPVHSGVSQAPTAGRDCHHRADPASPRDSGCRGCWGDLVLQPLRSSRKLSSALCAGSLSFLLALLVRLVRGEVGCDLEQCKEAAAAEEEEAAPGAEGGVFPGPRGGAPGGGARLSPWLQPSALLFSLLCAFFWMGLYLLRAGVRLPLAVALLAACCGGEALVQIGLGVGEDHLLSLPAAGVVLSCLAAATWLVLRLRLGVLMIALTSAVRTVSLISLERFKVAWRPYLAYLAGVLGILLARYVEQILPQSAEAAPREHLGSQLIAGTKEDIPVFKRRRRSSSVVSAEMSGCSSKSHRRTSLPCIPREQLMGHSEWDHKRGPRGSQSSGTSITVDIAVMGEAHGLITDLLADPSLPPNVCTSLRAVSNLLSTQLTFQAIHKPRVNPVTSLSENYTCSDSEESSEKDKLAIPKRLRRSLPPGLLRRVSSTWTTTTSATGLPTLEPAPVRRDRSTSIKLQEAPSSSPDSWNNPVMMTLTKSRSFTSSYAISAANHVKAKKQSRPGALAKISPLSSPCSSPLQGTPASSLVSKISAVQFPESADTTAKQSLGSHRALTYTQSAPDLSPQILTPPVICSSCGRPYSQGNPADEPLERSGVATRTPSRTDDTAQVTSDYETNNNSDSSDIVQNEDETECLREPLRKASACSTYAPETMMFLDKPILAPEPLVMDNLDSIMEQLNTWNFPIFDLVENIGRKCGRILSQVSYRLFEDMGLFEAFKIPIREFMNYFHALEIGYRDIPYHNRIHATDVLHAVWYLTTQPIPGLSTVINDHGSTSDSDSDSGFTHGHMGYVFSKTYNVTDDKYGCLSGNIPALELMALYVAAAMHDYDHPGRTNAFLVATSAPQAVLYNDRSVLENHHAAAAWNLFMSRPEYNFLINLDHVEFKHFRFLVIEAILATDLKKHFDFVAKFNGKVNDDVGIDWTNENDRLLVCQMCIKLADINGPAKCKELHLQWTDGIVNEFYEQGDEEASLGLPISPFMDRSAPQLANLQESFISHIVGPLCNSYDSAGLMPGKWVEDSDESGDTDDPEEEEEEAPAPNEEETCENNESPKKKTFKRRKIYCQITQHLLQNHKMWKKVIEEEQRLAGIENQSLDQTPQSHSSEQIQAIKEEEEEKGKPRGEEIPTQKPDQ", "experiment": "Inhibition of PDE3A (unknown origin) at 10 uM by CEREP analysis relative to control"}, "[8]": {"biological_target": "3',5'-cyclic-AMP phosphodiesterase 4D (Homo sapiens) (UniProt Q08499)", "sequence (Q08499 whole entry)": "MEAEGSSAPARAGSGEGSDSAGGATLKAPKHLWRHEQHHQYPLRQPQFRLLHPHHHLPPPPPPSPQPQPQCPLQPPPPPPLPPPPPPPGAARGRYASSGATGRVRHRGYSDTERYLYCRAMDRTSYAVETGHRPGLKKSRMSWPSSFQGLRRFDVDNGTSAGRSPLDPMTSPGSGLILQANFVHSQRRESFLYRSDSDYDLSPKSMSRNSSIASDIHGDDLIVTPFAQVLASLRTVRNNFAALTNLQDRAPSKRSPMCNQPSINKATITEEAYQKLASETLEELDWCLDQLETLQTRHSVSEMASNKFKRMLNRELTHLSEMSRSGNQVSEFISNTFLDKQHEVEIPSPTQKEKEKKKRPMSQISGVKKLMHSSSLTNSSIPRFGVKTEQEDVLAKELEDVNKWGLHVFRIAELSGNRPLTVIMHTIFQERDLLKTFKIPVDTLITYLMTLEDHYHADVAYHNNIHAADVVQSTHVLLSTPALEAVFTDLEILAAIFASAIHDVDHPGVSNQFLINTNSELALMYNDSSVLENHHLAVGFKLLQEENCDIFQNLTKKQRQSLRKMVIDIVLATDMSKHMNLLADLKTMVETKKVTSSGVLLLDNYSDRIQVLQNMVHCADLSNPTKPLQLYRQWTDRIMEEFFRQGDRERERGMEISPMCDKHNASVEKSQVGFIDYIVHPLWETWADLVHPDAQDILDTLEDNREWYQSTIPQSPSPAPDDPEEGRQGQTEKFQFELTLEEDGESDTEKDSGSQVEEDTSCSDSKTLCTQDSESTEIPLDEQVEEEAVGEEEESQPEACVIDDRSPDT", "experiment": "Inhibition of PDE4D2 (unknown origin) at 10 uM by CEREP analysis relative to control"}, "[9]": {"experiment": "Half life in female Balb/c mouse at 5 mg/kg, iv", "assay_type": "ADME, organism-based", "conditions": "in vivo"}, "[10]": {"experiment": "Clearance in female Balb/c mouse at 5 mg/kg, iv", "assay_type": "ADME, organism-based", "conditions": "in vivo"}, "[11]": {"experiment": "AUClast in Balb/c mouse at 10 mg/kg, po", "assay_type": "ADME, organism-based", "conditions": "in vivo"}, "[12]": {"experiment": "Oral bioavailability in Balb/c mouse at 10 mg/kg", "assay_type": "ADME, organism-based", "conditions": "in vivo"}, "[13]": {"experiment": "Half life in male Sprague-Dawley rat at 3 mg/kg, iv", "assay_type": "ADME, organism-based", "conditions": "in vivo"}, "[14]": {"experiment": "Clearance in male Sprague-Dawley rat at 3 mg/kg, iv", "assay_type": "ADME, organism-based", "conditions": "in vivo"}, "[15]": {"experiment": "AUClast in male Sprague-Dawley rat at 10 mg/kg, po", "assay_type": "ADME, organism-based", "conditions": "in vivo"}, "[16]": {"experiment": "Oral bioavailability in male Sprague-Dawley rat at 10 mg/kg", "assay_type": "ADME, organism-based", "conditions": "in vivo"}, "[17]": {"experiment": "Half life in male Beagle dog at 2 mg/kg, iv", "assay_type": "ADME, organism-based, Canis lupus familiaris", "conditions": "in vivo"}, "[18]": {"experiment": "Clearance in male Beagle dog at 2 mg/kg, iv", "assay_type": "ADME, organism-based, Canis lupus familiaris", "conditions": "in vivo"}, "[19]": {"experiment": "AUClast in male Beagle dog at 15 mg/kg, po", "assay_type": "ADME, organism-based, Canis lupus familiaris", "conditions": "in vivo"}, "[20]": {"experiment": "Oral bioavailability in male Beagle dog at 15 mg/kg", "assay_type": "ADME, organism-based, Canis lupus familiaris", "conditions": "in vivo"}, "[21]": {"experiment": "Stability in mouse hepatocytes measured for 127 mins", "assay_type": "ADME, cell-based, Hepatocyte", "conditions": "2.117 h"}, "[22]": {"experiment": "Stability in rat hepatocytes measured for 175 mins", "assay_type": "ADME, cell-based, Hepatocyte", "conditions": "2.917 h"}, "[23]": {"experiment": "Stability in dog hepatocytes", "assay_type": "ADME, cell-based, Canis lupus familiaris, Hepatocyte"}, "[24]": {"experiment": "Stability in monkey hepatocytes measured for 75 mins", "assay_type": "ADME, cell-based, Macaca mulatta, Hepatocyte", "conditions": "rhesus monkey, 1.25 h"}, "[25]": {"experiment": "Stability in human hepatocytes", "assay_type": "ADME, cell-based, Hepatocyte"}, "[26]": {"experiment": "Volume of distribution in female Balb/c mouse at 5 mg/kg, iv", "assay_type": "ADME, organism-based", "conditions": "in vivo"}, "[27]": {"experiment": "Volume of distribution in male Sprague-Dawley rat at 3 mg/kg, iv", "assay_type": "ADME, organism-based", "conditions": "in vivo"}, "[28]": {"experiment": "Volume of distribution in male Beagle dog at 2 mg/kg, iv", "assay_type": "ADME, organism-based, Canis lupus familiaris", "conditions": "in vivo"}, "[29]": {"experiment": "Dose-normalized AUC in male Sprague-Dawley rat at 10 mg/kg, po", "assay_type": "ADME, organism-based", "conditions": "in vivo"}, "[30]": {"experiment": "Dose-normalized AUC in female Balb/c mouse at 10 mg/kg, po", "assay_type": "ADME, organism-based", "conditions": "in vivo"}, "[31]": {"experiment": "Dose-normalized AUC in male Beagle dog at 15 mg/kg, po", "assay_type": "ADME, organism-based, Canis lupus familiaris", "conditions": "in vivo"}, "[32]": {"experiment": "Oral bioavailability in female Balb/c mouse at 30 mg/kg", "assay_type": "ADME, organism-based", "conditions": "in vivo"}, "[33]": {"experiment": "Oral bioavailability in male Sprague-Dawley rat at 30 mg/kg", "assay_type": "ADME, organism-based", "conditions": "in vivo"}, "[34]": {"experiment": "Oral bioavailability in male Beagle dog at 30 mg/kg", "assay_type": "ADME, organism-based, Canis lupus familiaris", "conditions": "in vivo"}, "cells": {"experiment": "cells", "conditions": "Mus musculus, BaF3/TRP-Met, 72 h"}, "BaF3 [35]": {"system": "BaF3", "experiment": "cells", "conditions": "Mus musculus, BaF3, 72 h"}, "BaF3 [36]": {"system": "BaF3", "experiment": "Antitumor activity against mouse BaF3 cells harboring TPR-D1228N mutant cells allografted in athymic BALB/c nude mouse at 10 mg/kg, po bid treated for 10 days relative to control", "assay_type": "functional", "conditions": "BaF3, 240 h, time 10 day, read-out: TGI"}},
  "note": "pEC50: −log10 of the molar value.",
  "data": [
    {"smiles": "COc1cc2nccc(Oc3c(F)cc(NC(=O)c4cnccc4OC)cc3F)c2cc1OCCO", "values": [
      {"measurement": "solubility kinetic", "setting": "[1]", "result": 279, "unit": "µM"},
      {"measurement": "solubility kinetic", "setting": "[2]", "result": 12.7, "unit": "µM"},
      {"measurement": "inhibition", "setting": "[3]", "result": 11, "unit": "%"},
      {"measurement": "inhibition at 10 µM", "setting": "hERG", "result": 8, "unit": "%"},
      {"measurement": "inhibition", "setting": "[4]", "result": 16, "unit": "%"},
      {"measurement": "inhibition", "setting": "[5]", "result": 16, "unit": "%"},
      {"measurement": "inhibition", "setting": "Homo sapiens", "result": 25, "unit": "%"},
      {"measurement": "inhibition at 10 µM", "setting": "L-type calcium channel", "result": 6, "unit": "%"},
      {"measurement": "inhibition", "setting": "[6]", "result": 10, "unit": "%"},
      {"measurement": "inhibition", "setting": "[7]", "result": 34, "unit": "%"},
      {"measurement": "inhibition", "setting": "[8]", "result": 31, "unit": "%"},
      {"measurement": "half-life", "setting": "[9]", "result": 2.1, "unit": "h"},
      {"measurement": "clearance", "setting": "[10]", "result": 0.247, "unit": "L/h/kg"},
      {"measurement": "AUC(0-t)", "setting": "[11]", "result": 8.22, "unit": "µg·h/mL"},
      {"measurement": "bioavailability", "setting": "[12]", "result": 20, "unit": "%"},
      {"measurement": "half-life", "setting": "[13]", "result": 3, "unit": "h"},
      {"measurement": "clearance", "setting": "[14]", "result": 0.288, "unit": "L/h/kg"},
      {"measurement": "AUC(0-t)", "setting": "[15]", "result": 28.2, "unit": "µg·h/mL"},
      {"measurement": "bioavailability", "setting": "[16]", "result": 61, "unit": "%"},
      {"measurement": "half-life", "setting": "[17]", "result": 7.1, "unit": "h"},
      {"measurement": "clearance", "setting": "[18]", "result": 0.402, "unit": "L/h/kg"},
      {"measurement": "AUC(0-t)", "setting": "[19]", "result": 7.17, "unit": "µg·h/mL"},
      {"measurement": "bioavailability", "setting": "[20]", "result": 18, "unit": "%"},
      {"measurement": "Stability", "setting": "[21]", "result": "Stable"},
      {"measurement": "Stability", "setting": "[22]", "result": "Stable"},
      {"measurement": "Stability", "setting": "[23]", "result": "Stable"},
      {"measurement": "Stability", "setting": "[24]", "result": "Stable"},
      {"measurement": "Stability", "setting": "[25]", "result": "Stable"},
      {"measurement": "Vd", "setting": "[26]", "result": 0.38, "unit": "L/kg"},
      {"measurement": "Vd", "setting": "[27]", "result": 0.68, "unit": "L/kg"},
      {"measurement": "Vd", "setting": "[28]", "result": 2.25, "unit": "L/kg"},
      {"measurement": "AUC/dose", "setting": "[29]", "result": 2040, "unit": "ng.h/mL per mg/kg"},
      {"measurement": "AUC/dose", "setting": "[30]", "result": 822, "unit": "ng.h/mL per mg/kg"},
      {"measurement": "AUC/dose", "setting": "[31]", "result": 464, "unit": "ng.h/mL per mg/kg"},
      {"measurement": "bioavailability", "setting": "[32]", "result": 13, "unit": "%"},
      {"measurement": "bioavailability", "setting": "[33]", "result": 34, "unit": "%"},
      {"measurement": "bioavailability", "setting": "[34]", "result": 8, "unit": "%"},
      {"measurement": "pEC50", "setting": "cells", "result": 7.19},
      {"measurement": "pEC50", "setting": "BaF3 [35]", "result": 7.40}
    ]},
    {"smiles": "CNC(=O)c1ccc(-c2cnc3ncc(Cc4ccc5ncccc5c4)n3n2)cc1F", "note": "[CAPMATINIB]", "values": [
      {"measurement": "solubility kinetic", "setting": "[1]", "result": 279, "unit": "µM"},
      {"measurement": "solubility kinetic", "setting": "[2]", "result": 17.5, "unit": "µM"},
      {"measurement": "inhibition in vivo at 10 mg/kg", "setting": "BaF3 [36]", "result": 17, "unit": "%"}
    ]}
  ]
}
